Like-named read-outs stand apart in the source and are kept apart here.
How the values were obtained:
[1] = molecular target: T1, mu opioid receptor (MOR) (Homo sapiens, UniProt P35372); test: MOR cAMP antagonist assay; type: cell-based; design: host or cells: CHO-K1
Text: MOR cAMP Antagonist Assay

[2] = molecular target: T1, mu opioid receptor (MOR); test: MOR GTPγS agonist assay; type: biochemical; design: host or cells: CHO-K1; settings: membranes of CHO cells over-expressing MOR; SPA beads; read-out: MOR GTPγS EC50
Text: Membranes obtained from the stable cell lines over-expressing MOR were subjected to GTPγS assay using SPA beads (Perkin Elmer, Cat #RPNQ0001).

[3] = molecular target: T1, mu opioid receptor (MOR); test: MOR cAMP agonist assay
[4] = molecular target: T2, kappa opioid receptor (KOR) (Homo sapiens, UniProt P41145); test: cell-based; settings: after activation with dynorphin B
T2 construct: host or cells: CHO-K1
T2 sequence (P41145 whole entry): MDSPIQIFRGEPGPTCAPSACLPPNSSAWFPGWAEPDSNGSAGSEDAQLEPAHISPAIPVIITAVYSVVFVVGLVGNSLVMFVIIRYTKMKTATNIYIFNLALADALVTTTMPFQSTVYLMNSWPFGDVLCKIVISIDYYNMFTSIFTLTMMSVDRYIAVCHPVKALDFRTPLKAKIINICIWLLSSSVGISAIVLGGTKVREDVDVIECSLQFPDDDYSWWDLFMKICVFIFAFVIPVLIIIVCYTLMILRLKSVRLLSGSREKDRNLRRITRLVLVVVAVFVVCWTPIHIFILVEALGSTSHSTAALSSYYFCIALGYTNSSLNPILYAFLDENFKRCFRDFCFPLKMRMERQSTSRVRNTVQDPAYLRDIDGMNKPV
Text: KOR cAMP Antagonist Assay

[5] = kOR cAMP IC50, CHO-K1 cells expressing kOR
[6] = CHO-K1 cells expressing kOR, read-out: kOR cAMP IC50

T1 sequence (P35372 whole entry): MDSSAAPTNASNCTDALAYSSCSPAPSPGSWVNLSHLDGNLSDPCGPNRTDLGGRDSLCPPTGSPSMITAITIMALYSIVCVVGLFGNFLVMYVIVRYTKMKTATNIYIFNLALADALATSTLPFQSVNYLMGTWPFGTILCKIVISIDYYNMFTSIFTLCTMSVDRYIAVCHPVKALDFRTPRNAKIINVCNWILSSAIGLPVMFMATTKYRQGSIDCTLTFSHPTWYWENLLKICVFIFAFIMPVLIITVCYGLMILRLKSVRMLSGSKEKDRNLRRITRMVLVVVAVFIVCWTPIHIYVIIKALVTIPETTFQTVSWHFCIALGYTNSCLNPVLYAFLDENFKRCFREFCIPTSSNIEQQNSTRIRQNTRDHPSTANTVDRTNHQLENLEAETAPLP

CN(C)[C@H](CNC(=O)c1ccc(Cl)c(Cl)c1)Cc1ccc(O)cc1Cl [Compound C-7, (S)-3,4-Dichloro-N-(3-(2-chloro-4-hydroxyphenyl)-2-(dimethylamino)propyl)benzamide]
IC50 [1]: < 100 nM

Cc1cc(O)cc(C)c1C[C@@H](CNC(=O)c1ccc(Cl)c(C(F)(F)F)c1)N(C)C [Compound C-27]
IC50 [1]: < 100 nM
EC50 [2]: < 100 nM

CN1Cc2cc(O)ccc2C[C@H]1CNC(=O)c1ccc(Cl)c(Cl)c1 [Compound C-54]
IC50 [1]: < 100 nM
EC50 [2]: < 100 nM

CNC(=O)c1ccc(C[C@@H](CNC(=O)c2ccc(Cl)c(Cl)c2)N(C)C)cc1F [Compound C-39]
IC50 [1]: < 100 nM
EC50 [2]: < 100 nM

CC(=O)Oc1cc(C)c(C[C@@H](CNC(=O)c2ccc(Cl)c(Cl)c2)N(C)C)c(C)c1 [Compound C-56, (S)-4-(3-(3,4-dichlorobenzamido)-2-(dimethylamino)propyl)-3,5-dimethylphenyl acetate]
IC50 [1]: < 100 nM

Cc1cc(O)cc(C)c1C[C@@H](CNC(=O)c1ccc(C(F)(F)F)c(F)c1)N(C)C [Compound C-30]
IC50 [1]: < 100 nM
EC50 [2]: < 100 nM

Cc1cc(C[C@@H](CNC(=O)[C@@H]2C[C@]2(C)c2ccccc2)N(C)CC2CC2)ccc1O [Compound B-40, (1R,2S)—N—((S)-2-((cyclopropylmethyl)(methyl)amino)-3-(4-hydroxy-3-methylphenyl)propyl)-2-methyl-2-phenylcyclopropane-1-carboxamide]
EC50 [3]: < 100 nM
IC50 [4, 5]: > 1000 nM

CN(C)[C@H](CNC(=O)[C@@H]1C[C@@]1(C)c1ccccc1)Cc1c(F)cc(O)cc1F [Compound B-14, (1R,2R)—N—((S)-3-(2,6-difluoro-4-hydroxyphenyl)-2-(dimethylamino)propyl)-2-methyl-2-phenylcyclopropane-1-carboxamide]
EC50 [3]: < 100 nM
IC50 [4, 5]: > 1000 nM

Cc1cc(O)cc(C)c1C[C@@H](CNC(=O)c1ccc2ccccc2c1)N(C)C [Compound C-33]
IC50 [1]: < 100 nM
EC50 [2]: < 100 nM

O=C(NC[C@H](Cc1ccc2[nH]ncc2c1)N1CCCC1)c1ccc(Cl)c(Cl)c1 [Compound C-59, (S)—N-(3-(1H-indazol-5-yl)-2-(pyrrolidin-1-yl)propyl)-3,4-dichlorobenzamide]
IC50 [1]: < 100 nM
EC50 [2]: 100 to 1000 nM

Cc1cc(O)cc(C)c1C[C@@H](CNC(=O)c1nccc2ccccc12)N(C)C [Compound C-34]
IC50 [1]: < 100 nM
EC50 [2]: < 100 nM

Cc1cc(O)cc(C)c1C[C@@H](CNC(=O)c1ccc(C(F)(F)F)c(Cl)c1)N(C)C [Compound C-26]
IC50 [1]: < 100 nM
EC50 [2]: < 100 nM

Cc1cc(C(N)=O)cc(C)c1C[C@@H](CNC(=O)C[C@H](C)c1ccccc1)N(C)C [Compound A-8, 4-((S)-2-(dimethylamino)-3-((S)-3-phenylbutanamido)propyl)-3,5-dimethylbenzamide]
EC50 [3]: > 1000 nM
IC50 [4, 6]: > 1000 nM

Cc1cc(C(N)=O)cc(C)c1C[C@@H](CNC(=O)N[C@H](c1ccccc1)C1CC1)N(C)C [Compound A-9, 4-((S)-3-(3-((S)-cyclopropyl(phenyl)methyl)ureido)-2-(dimethylamino)propyl)-3,5-dimethylbenzamide]
EC50 [3]: > 1000 nM
IC50 [4, 6]: > 1000 nM

CCN(CC)[C@H](CNC(=O)c1ccc(Cl)c(Cl)c1)Cc1ccc2[nH]ncc2c1 [Compound C-64]
IC50 [1]: < 100 nM
EC50 [2]: < 100 nM

O=C(NC[C@@H]1Cc2ccc(O)cc2CN1)c1ccc(Cl)c(Cl)c1 [Compound C-60, (S)-3,4-dichloro-N-((7-hydroxy-1,2,3,4-tetrahydroisoquinolin-3-yl)methyl)benzamide]
IC50 [1]: < 100 nM
EC50 [2]: < 100 nM

CN(C)[C@H](CNC(=O)[C@@H]1CCCN1c1ccccc1)Cc1ccc(C(N)=O)cc1 [Compound B-10, (S)—N—((S)-3-(4-carbamoylphenyl)-2-(dimethylamino)propyl)-1-phenylpyrrolidine-2-carboxamide]
EC50 [3]: 100 to 1000 nM
IC50 [4, 5]: 100 to 1000 nM

CN(C)[C@H](CNC(=O)c1ccc(Cl)c(Cl)c1)Cc1ccc(O)c(Cl)c1 [Compound C-61, (S)-3,4-dichloro-N-(3-(3-chloro-4-hydroxyphenyl)-2-(dimethylamino)propyl)benzamide]
IC50 [1]: < 100 nM
EC50 [2]: < 100 nM

CN(C)[C@H](CNC(=O)[C@@H]1C[C@]1(C)c1ccccc1)Cc1ccc2[nH]c(=O)oc2c1 [Compound B-49, (1R,2S)—N—((S)-2-(dimethylamino)-3-(2-oxo-2,3-dihydrobenzo[d]oxazol-6-yl)propyl)-2-methyl-2-phenylcyclopropane-1-carboxamide]
EC50 [3]: < 100 nM
IC50 [4, 5]: > 1000 nM

Cc1ccc(C(=O)NC[C@H](Cc2c(C)cc(O)cc2C)N(C)C)cc1C [Compound C-28]
IC50 [1]: < 100 nM
EC50 [2]: < 100 nM

CN(C)[C@H](CNC(=O)c1ccc(Br)c(Cl)c1)Cc1ccc(O)cc1Cl [Compound C-8, (S)-4-bromo-3-chloro-N-(3-(2-chloro-4-hydroxyphenyl)-2-(dimethylamino)propyl)benzamide]
IC50 [1]: < 100 nM

CN(C)[C@H](CNC(=O)[C@@H]1C[C@@]1(C)c1ccccc1)Cc1ccc2[nH]ncc2c1 [Compound B-20, (1R,2R)—N—((S)-2-(dimethylamino)-3-(1H-indazol-5-yl)propyl)-2-methyl-2-phenylcyclopropane-1-carboxamide]
EC50 [3]: < 100 nM
IC50 [4, 5]: > 1000 nM

Cc1ccc(C(=O)NC[C@H](Cc2ccc(O)cc2Cl)N(C)C)cc1C [Compound C-2, (S)—N-(3-(2-Chloro-4-hydroxyphenyl)-2-(dimethylamino)propyl)-3,4-dimethylbenzenamide]
IC50 [1]: < 100 nM

C[C@@]1(c2ccccc2)C[C@H]1C(=O)NC[C@@H]1Cc2ccc(O)cc2N1 [Compound B-16, (1R,2R)—N—(((S)-6-hydroxyindolin-2-yl)methyl)-2-methyl-2-phenylcyclopropane-1-carboxamide]
EC50 [3]: > 1000 nM
IC50 [4, 6]: > 1000 nM

Cc1cc(C(N)=O)cc(C)c1C[C@@H](CNC(=O)C[C@@H](C)c1ccccc1)N(C)C [Compound A-11, 4-((S)-2-(dimethylamino)-3-((R)-3-phenylbutanamido)propyl)-3,5-dimethylbenzamide]
EC50 [3]: > 1000 nM
IC50 [4, 5]: 100 to 1000 nM

CN(C)[C@H](CNC(=O)[C@H]1C[C@@]1(C)c1ccccc1)Cc1ccc(O)cc1 [Compound B-11, (1S,2R)—N—((S)-2-(dimethylamino)-3-(4-hydroxyphenyl)propyl)-2-methyl-2-phenylcyclopropane-1-carboxamide]
EC50 [3]: 100 to 1000 nM
IC50 [4, 5]: > 1000 nM

Cc1cc(C(N)=O)cc(C)c1C[C@H](N)CNC(=O)N[C@H](c1ccccc1)C1CC1 [Compound A-6, 4-((S)-2-amino-3-(3-((S)-cyclopropyl(phenyl)methyl)ureido)propyl)-3,5-dimethylbenzamide]
EC50 [3]: 100 to 1000 nM
IC50 [4, 5]: 100 to 1000 nM

Cc1cc(O)cc(C)c1C[C@@H](CNC(=O)[C@@H]1C[C@@]1(C)c1ccccc1)N(C)C [Compound B-13, (1R,2R)—N—((S)-2-(dimethylamino)-3-(4-hydroxy-2,6-dimethylphenyl)propyl)-2-methyl-2-phenylcyclopropane-1-carboxamide]
EC50 [3]: < 100 nM
IC50 [4, 5]: < 100 nM

Cc1cc(C(N)=O)cc(C)c1C[C@@H](CNC(=O)[C@@H]1C[C@@]1(C)c1ccccc1)N(C)C [Compound B-8, 4-((S)-2-(dimethylamino)-3-((1R,2R)-2-methyl-2-phenylcyclopropane-1-carboxamido)propyl)-3,5-dimethylbenzamide]
EC50 [3]: < 100 nM
IC50 [4, 5]: 100 to 1000 nM

CN(C)[C@H](CNC(=O)c1cc(F)c(Cl)c(F)c1)Cc1ccc(O)cc1Cl [Compound C-1]
IC50 [1]: < 100 nM

C[C@H](OC(=O)NC[C@@H](N)Cc1ccc(C(N)=O)cc1)c1ccccc1 [Compound A-2, (S)-1-phenylethyl ((S)-2-amino-3-(4-carbamoylphenyl)propyl)carbamate]
EC50 [3]: > 1000 nM
IC50 [4, 6]: > 1000 nM

CN(C)[C@H](CNC(=O)[C@H]1CCCN1c1ccccc1)Cc1ccc(C(N)=O)cc1 [Compound B-9, (R)—N—((S)-3-(4-carbamoylphenyl)-2-(dimethylamino)propyl)-1-phenylpyrrolidine-2-carboxamide]
EC50 [3]: 100 to 1000 nM
IC50 [4, 5]: > 1000 nM

CN(C)[C@H](CNC(=O)[C@@H]1C[C@H]1c1ccccc1)Cc1ccc(O)cc1 [Compound B-17, (1R,2R)—N—((S)-2-(dimethylamino)-3-(4-hydroxyphenyl)propyl)-2-phenylcyclopropane-1-carboxamide]
EC50 [3]: < 100 nM
IC50 [4, 5]: 100 to 1000 nM

CN(C)[C@H](CNC(=O)[C@@H]1C[C@@]1(C)c1ccccc1)Cc1ccc(C(N)=O)cc1Cl [Compound B-6, 3-chloro-4-((S)-2-(dimethylamino)-3-((1R,2R)-2-methyl-2-phenylcyclopropane-1-carboxamido)propyl)benzamide]
EC50 [3]: < 100 nM
IC50 [4, 5]: 100 to 1000 nM

CN(C)[C@H](CNC(=O)[C@@H]1C[C@@]1(C)c1ccccc1)Cc1ccc(C(N)=O)cc1Cl [Compound B-60, 3-chloro-4-((S)-2-(dimethylamino)-3-((1R,2R)-2-methyl-2-phenylcyclopropane-1-carboxamido)propyl)benzamide]
EC50 ([3]; read-out: mOR cAMP EC50, CHO-K1 cells stably expressing mOR, cAMP levels): < 100 nM
IC50 [4, 5]: < 100 nM

CN(C)[C@H](CNC(=O)[C@@H]1C[C@@]1(C)c1ccccc1)Cc1ccc(O)cc1Cl [Compound B-1, (1R,2R)—N—((S)-3-(2-chloro-4-hydroxyphenyl)-2-(dimethylamino)propyl)-2-methyl-2-phenylcyclopropane-1-carboxamide]
EC50 [3]: < 100 nM
IC50 [4, 5]: < 100 nM
